Reference: patent US11865100B2, “Method for treatment of rosacea in patients aged 65 years and older” (Sol-Gel Technologies Ltd., priority 2019, dated 2024)

Key:
[1] = test system: papulopustular rosacea in patients aged 65 years and older; assay: Randomized, double-blind, vehicle-controlled 12-week study of E-BPO cream: Investigator Global Assessment (IGA) success rate; assay type: in vivo, human; conditions: Week 8
Protocol: Description: A randomized, double-blind, multi-center, parallel group, active- and vehicle-controlled study of encapsulated 5% benzoyl peroxide cream (E-BPO) and vehicle cream was performed to assess the efficacy and safety of E-BPO compared to vehicle. Study duration was 12 weeks and included approximately 350 male and female patients afflicted with papulopustular rosacea. 71 patients (about 20%) were at least 65 years of age.
Patients were admitted into the study after meeting all inclusion/exclusion criteria, including a clinical diagnosis of rosacea. Subjects with moderate to severe rosacea who were appropriate for systemic treatment were counseled regarding their treatment options by the Principal Investigator. At each visit, a 5-point IGA scale of rosacea and inflammatory lesion counts were performed and recorded.
Dosing: Patients were randomly organized in a 2:1 ratio to the study product or vehicle treatment group, respectively. Patients applied the study product once daily for 12 weeks on the face in a thin layer to provide even distribution.
Clinical and Safety Evaluations were performed at Baseline and Weeks 2, 4, 8 and 12.
The success rate of the treatment of rosacea (defined as a 2-grade improvement in the IGA relative to Baseline at Weeks 2, 4, […] and 12, with an IGA of Clear or Almost Clear) in patients aged 65 years and older are shown in Table 1 and FIG. 1. […]

rosacea = conditions: Gul 2008; BPO as sole active agent; cited from earlier work

O=C(OOC(=O)c1ccccc1)c1ccccc1 [BPO, Benzoyl peroxide]
Success rate greater than the success rate achieved with vehicle alone (difference drug - vehicle) [1]: 25%
Response of rosacea lesions (rosacea): unresponsive
